{
  "source": "patent US10265327B2",
  "about": "“V1A antagonists to treat phase shift sleep disorders” (Hoffmann-La Roche Inc., priority 2013, dated 2019)",
  "key": {"[1]": {"target": "T1, human V1a receptor (hV1a) (Homo sapiens, UniProt P37288)", "T1 construct": "expressed in transfected cells; host or cells: HEK cells, transient transfection; membrane preparation", "T1 sequence (P37288 whole entry)": "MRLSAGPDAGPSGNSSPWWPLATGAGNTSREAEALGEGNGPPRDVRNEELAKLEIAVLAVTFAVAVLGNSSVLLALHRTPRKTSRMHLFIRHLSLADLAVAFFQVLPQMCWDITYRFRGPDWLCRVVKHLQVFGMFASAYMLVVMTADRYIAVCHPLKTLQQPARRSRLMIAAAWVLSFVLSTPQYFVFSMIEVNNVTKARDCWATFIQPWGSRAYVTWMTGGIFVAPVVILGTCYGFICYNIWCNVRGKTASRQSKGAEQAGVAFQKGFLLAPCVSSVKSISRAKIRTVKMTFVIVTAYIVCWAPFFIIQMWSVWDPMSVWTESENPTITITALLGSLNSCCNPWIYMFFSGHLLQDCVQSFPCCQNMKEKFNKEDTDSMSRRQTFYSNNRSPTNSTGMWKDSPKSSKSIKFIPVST", "experiment": "Radioligand binding assay (3H-AVP, SPA), human V1a", "conditions": "1 nM 3H-AVP", "procedure": "(§1) The test compound was initially dissolved in DMSO at a concentration of 10 mM. Subsequent dilutions were made in assay buffer with a maximum final concentration of 0.2% DMSO.\n(§2) Recombinant vasopressin V1a (human: hV1a; mouse: mV1a), V1b (human: hV1b) were independently expressed in human embryonic kidney (HEK) cells using transient transfection. The cell membranes expressing the various receptors were prepared by homogenizing (using Polytron homogenizer) the cell culture pellet in lysis buffer (50 mM HEPES, 1 mM EDTA, 10 mM MgCl2, pH 7.4 with protease inhibitors), then centrifuging the resulting suspension at 500 g for 20 min at 4° C. The supernatant was subsequently re-centrifuged at 43,000 g for 1 hour at 4° C. […] The concentration of protein was determined, and the membranes were aliquoted and stored at −80° C. until further use.\n(§3) All radioligand binding assays were carried out in 96-well plates in the presence of 1 nM ^3H-AVP (vasopressin) radioligand, and 10 concentrations of test compound (ranging from 27 μM-1 nM or 2.7 μM-0.1 nM for hV1a binding). […] Filtration assays were terminated by rapid filtration under vacuum through GF/C filters, presoaked for 5 min with buffer B containing Tris 50 mM, MgCl2 5 mM, 0.1% BSA (pH 7.4), followed by 5×0.4 ml washes of ice-cold buffer B. For both SPA and filtration plates, bound ligand was determined using a Packard Topcount scintillation counter. […]"}, "[2]": {"target": "T2, mouse V1a receptor (mV1a) (Mus musculus, UniProt Q62463)", "T2 construct": "expressed in transfected cells; host or cells: HEK cells, transient transfection; membrane preparation", "T2 sequence (Q62463 whole entry)": "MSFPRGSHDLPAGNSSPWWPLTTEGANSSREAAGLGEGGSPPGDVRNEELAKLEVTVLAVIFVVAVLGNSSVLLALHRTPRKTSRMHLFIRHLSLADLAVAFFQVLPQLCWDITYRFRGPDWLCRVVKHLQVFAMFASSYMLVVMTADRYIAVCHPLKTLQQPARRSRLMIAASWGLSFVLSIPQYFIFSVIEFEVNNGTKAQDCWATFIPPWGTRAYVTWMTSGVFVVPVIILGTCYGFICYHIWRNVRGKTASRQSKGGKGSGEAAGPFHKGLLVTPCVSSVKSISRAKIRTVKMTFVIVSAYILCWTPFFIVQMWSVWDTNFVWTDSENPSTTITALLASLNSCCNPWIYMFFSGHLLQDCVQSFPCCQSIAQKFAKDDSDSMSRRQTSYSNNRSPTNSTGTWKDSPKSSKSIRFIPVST", "experiment": "Radioligand binding assay (3H-AVP, filtration), mouse V1a", "conditions": "Ki ± SEM (n); 1 nM 3H-AVP", "procedure": "as §1, §2, §3"}},
  "note": "Like-named read-outs stand apart in the source and are kept apart here.",
  "data": [
    {"smiles": "CN1Cc2cc(Cl)ccc2-n2c(nnc2[C@H]2CC[C@H](Oc3ccccn3)CC2)C1", "note": "[Example 1, trans-8-chloro-5-methyl-1-(4-pyridin-2-yloxycyclohexyl)-4,6-dihydro-[1,2,4]triazolo[4,3-a][1,4]benzodiazepine]", "values": [
      {"measurement": "Ki", "setting": "[1]; Ki ± SEM (n), read-out: Ki V1a Human", "result": "0.7 ± 0.1", "unit": "nM"},
      {"measurement": "Ki", "setting": "[1]; pKi ± SEM (n), read-out: pKi V1a Human (converted)", "result": 0.776, "unit": "nM"},
      {"measurement": "Ki", "setting": "[2]", "result": "77 ± 2", "unit": "nM"}
    ]}
  ]
}
